In one test the target is recombinant human AMCase (Homo sapiens (Human), UniProt Q9BZP6). In words: Human AMCase activity assay (fluorescent 4MU substrate). The format is biochemical. As to conditions: citrate buffer pH 5.2, 37° C., 60 minutes; substrate 4-methylumbelliferyl B-D-N,N′-diacetylchitobioside hydrate; read-out: Activity on hAMCase, IC50.
The next test has as its target recombinant human CHIT1 (Homo sapiens (Human), UniProt Q13231). The test can be described thus: Human CHIT1 activity assay (fluorescent 4MU substrate). The format is biochemical. The settings on record: citrate buffer pH 5.2, 37° C., 60 minutes; substrate 4-methylumbelliferyl β-D-N,N′,N″-triacetylchitotriose; read-out: Activity on hCHIT1, IC50.

As usually defined, the IC50 is the concentration needed to halve the response being measured.

Chain of recombinant human AMCase (Q9BZP6 22-476): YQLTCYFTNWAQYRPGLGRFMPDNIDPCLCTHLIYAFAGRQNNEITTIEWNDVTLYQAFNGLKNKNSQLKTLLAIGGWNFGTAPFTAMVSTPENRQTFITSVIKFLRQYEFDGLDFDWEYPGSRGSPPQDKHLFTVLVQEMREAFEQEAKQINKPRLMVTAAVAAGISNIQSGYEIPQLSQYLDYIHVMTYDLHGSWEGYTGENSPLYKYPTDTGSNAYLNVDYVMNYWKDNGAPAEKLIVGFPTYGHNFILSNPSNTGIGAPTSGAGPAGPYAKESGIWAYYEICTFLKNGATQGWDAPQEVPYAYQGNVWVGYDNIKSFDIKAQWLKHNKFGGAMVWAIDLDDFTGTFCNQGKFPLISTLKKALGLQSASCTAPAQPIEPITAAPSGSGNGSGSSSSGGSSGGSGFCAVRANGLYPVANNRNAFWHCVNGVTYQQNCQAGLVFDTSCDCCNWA
Chain of recombinant human CHIT1 (Q13231 22-466): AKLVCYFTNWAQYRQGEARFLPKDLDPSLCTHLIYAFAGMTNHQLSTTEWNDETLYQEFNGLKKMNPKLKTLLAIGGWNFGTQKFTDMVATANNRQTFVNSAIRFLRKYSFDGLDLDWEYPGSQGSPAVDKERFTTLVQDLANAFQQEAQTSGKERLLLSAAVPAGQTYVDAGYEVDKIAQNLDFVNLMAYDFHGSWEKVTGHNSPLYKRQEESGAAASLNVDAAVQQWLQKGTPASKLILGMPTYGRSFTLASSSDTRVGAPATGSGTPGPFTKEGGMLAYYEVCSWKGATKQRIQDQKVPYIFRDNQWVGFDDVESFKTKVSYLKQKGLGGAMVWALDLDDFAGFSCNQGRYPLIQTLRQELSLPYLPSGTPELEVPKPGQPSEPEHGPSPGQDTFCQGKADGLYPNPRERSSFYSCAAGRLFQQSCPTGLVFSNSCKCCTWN

On to `Nc1nnc(N2CCC(N3CCOC[C@@H]3Cc3ccc(Cl)cc3)CC2)[nH]1` [Example 1, (S)-5-(4-(3-(4-chlorobenzyl)morpholino)piperidin-1-yl)-4H-1,2,4-triazol-3-amine], for which the IC50 on recombinant human AMCase was < 100 nM.

In the case of `Nc1nnc(N2CCC(N3CCOCC3Cc3ccc(Cl)cc3)CC2)[nH]1` (stereo not shown) [Example 2, 5-(4-(3-(4-chlorobenzyl)morpholino)piperidin-1-yl)-4H-1,2,4-triazol-3-amine], the IC50 at recombinant human CHIT1 lay in the range of 100 to 1000 nM.

As for `Nc1nnc(N2CCC(N3CCOC[C@@H]3Cc3ccc(Br)cc3)CC2)[nH]1` [Example 3, (S)-5-(4-(3-(4-bromobenzyl)morpholino)piperidin-1-yl)-4H-1,2,4-triazol-3-amine], on recombinant human AMCase, the IC50 is < 100 nM.

Take `CCOC[C@H]1CN(C2CCN(c3nnc(N)[nH]3)CC2)[C@@H](Cc2ccc(Cl)cc2)CO1` [Example 11, 5-(4-((2R,5S)-5-(4-chlorobenzyl)-2-(ethoxymethyl)morpholino)piperidin-1-yl)-4H-1,2,4-triazol-3-amine]: the half-maximal inhibitory concentration (IC50) on recombinant human AMCase is < 100 nM.

Turning to `COC(C)(C)[C@H]1CN(C2CCN(c3nnc(N)[nH]3)CC2)[C@@H](Cc2ccc(Cl)cc2)CO1` [Example 14, 5-(4-((2R,5S)-5-(4-chlorobenzyl)-2-(2-methoxypropan-2-yl)morpholino)piperidin-1-yl)-4H-1,2,4-triazol-3-amine], the IC50 on recombinant human AMCase is < 100 nM.

For the compound `Nc1nnc(N2CCC(N3CCCC[C@@H]3Cc3ccc(Cl)cc3)CC2)[nH]1` [Example 15, (R)-5-(2-(4-chlorobenzyl)-[1,4′-bipiperidin]-1′-yl)-4H-1,2,4-triazol-3-amine], the IC50 on recombinant human AMCase was < 100 nM.

`CCOC(=O)C1CC[C@H](Cc2ccc(Cl)cc2)N(C2CCN(c3nnc(N)[nH]3)CC2)C1` (stereo partly drawn) [Example 16, ethyl (6R)-1′-(5-amino-4H-1,2,4-triazol-3-yl)-6-(4-chlorobenzyl)-[1,4′-bipiperidine]-3-carboxylate]: the IC50 on recombinant human AMCase was < 100 nM.

Take `Nc1nnc(N2CCC(N3CC(C(=O)O)CC[C@@H]3Cc3ccc(Cl)cc3)CC2)[nH]1` (stereo partly drawn) [Example 17, (6R)-1′-(5-amino-4H-1,2,4-triazol-3-yl)-6-(4-chlorobenzyl)-[1,4′-bipiperidine]-3-carboxylic acid]: the IC50 at recombinant human AMCase was < 100 nM.

For `CC1(C(=O)O)CC[C@H](Cc2ccc(Cl)cc2)N(C2CCN(c3nnc(N)[nH]3)CC2)C1` (stereo partly drawn) [Example 18, (6R)-1′-(5-amino-4H-1,2,4-triazol-3-yl)-6-(4-chlorobenzyl)-3-methyl-[1,4′-bipiperidine]-3-carboxylic acid], the IC50 on recombinant human AMCase is < 100 nM.

As to `Nc1nnc(N2CCC(N3CCCCC3C(O)c3ccc(Cl)cc3)CC2)[nH]1` (stereo not shown) [Example 21, (1′-(5-amino-4H-1,2,4-triazol-3-yl)-[1,4′-bipiperidin]-2-yl)(4-chlorophenyl)methanol], the IC50 at recombinant human CHIT1 fell in the range of 10000 to 100000 nM.

For `CO[C@H]1CN(C2CCN(c3nnc(N)[nH]3)CC2)[C@H]1Cc1ccc(Cl)cc1` [Example 22, 5-(4-((2S,3S)-2-(4-chlorobenzyl)-3-methoxyazetidin-1-yl)piperidin-1-yl)-4H-1,2,4-triazol-3-amine], the IC50 at recombinant human CHIT1 lay in the range of 100 to 1000 nM.

As to `Nc1nnc(N2CCC(N3C[C@@H](F)[C@@H]3Cc3ccc(Cl)cc3)CC2)[nH]1` [Example 23, 5-(4-((2S,3R)-2-(4-chlorobenzyl)-3-fluoroazetidin-1-yl)piperidin-1-yl)-4H-1,2,4-triazol-3-amine], the IC50 on recombinant human CHIT1 lay in the range of 10000 to 100000 nM.

`Nc1nnc(N2CCC(N3CCNC[C@@H]3Cc3ccc(Cl)cc3)CC2)[nH]1` [Example 26, (S)-5-(4-(2-(4-chlorobenzyl)piperazin-1-yl)piperidin-1-yl)-4H-1,2,4-triazol-3-amine]: the IC50 at recombinant human CHIT1 fell in the range of 1000 to 10000 nM.

For `C[C@H]1CN(C2CCN(c3nnc(N)[nH]3)CC2)[C@@H](Cc2ccc(Cl)cc2)CN1C` [Example 27, 5-(4-((2S,5S)-2-(4-chlorobenzyl)-4,5-dimethylpiperazin-1-yl)piperidin-1-yl)-4H-1,2,4-triazol-3-amine], the IC50 at recombinant human CHIT1 was 1000 to 10000 nM.

Consider `CC(C)CN1CCN(C2CCN(c3nnc(N)[nH]3)CC2)[C@@H](Cc2ccc(Cl)cc2)C1` [Example 29, (S)-5-(4-(2-(4-chlorobenzyl)-4-isobutylpiperazin-1-yl)piperidin-1-yl)-4H-1,2,4-triazol-3-amine], for which the IC50 on recombinant human CHIT1 lay in the range of 10000 to 100000 nM.

For `CN1C[C@H](Cc2ccc(Cl)cc2)N(C2CCN(c3nnc(N)[nH]3)CC2)C[C@@H]1Cc1ccc(Cl)cc1` [Example 31, 5-(4-((2S,5S)-2,5-bis(4-chlorobenzyl)-4-methylpiperazin-1-yl)piperidin-1-yl)-4H-1,2,4-triazol-3-amine], the IC50 on recombinant human CHIT1 was 1000 to 10000 nM; at recombinant human AMCase it was < 100 nM.

As to `CN1C[C@H](Cc2ccc(Cl)cc2)N(C2CCN(c3nnc(N)[nH]3)CC2)C[C@@H]1CC1CCCCC1` [Example 32, 5-(4-((2S,5S)-2-(4-chlorobenzyl)-5-(cyclohexylmethyl)-4-methylpiperazin-1-yl)piperidin-1-yl)-4H-1,2,4-triazol-3-amine], the IC50 at recombinant human CHIT1 is 1000 to 10000 nM; at recombinant human AMCase it was < 100 nM.

Turning to `CC(C)C[C@H]1CN(C2CCN(c3nnc(N)[nH]3)CC2)[C@@H](Cc2ccc(Cl)cc2)CN1C` [Example 33, 5-(4-((2S,5S)-2-(4-chlorobenzyl)-5-isobutyl-4-methylpiperazin-1-yl)piperidin-1-yl)-4H-1,2,4-triazol-3-amine], the IC50 was 1000 to 10000 nM at recombinant human CHIT1 and < 100 nM at recombinant human AMCase.

Take `COC(=O)CN1C[C@H](Cc2ccc(Cl)cc2)N(C2CCN(c3nnc(N)[nH]3)CC2)C[C@@H]1C` [Example 40, methyl 2-((2S,5S)-4-(1-(5-amino-4H-1,2,4-triazol-3-yl)piperidin-4-yl)-5-(4-chlorobenzyl)-2-methylpiperazin-1-yl)acetate]: the IC50 at recombinant human AMCase was < 100 nM.

For the compound `C[C@H]1CN(C2CCN(c3nnc(N)[nH]3)CC2)[C@@H](Cc2ccc(Cl)cc2)CN1CC(=O)O` [Example 41, 2-((2S,5S)-4-(1-(5-amino-4H-1,2,4-triazol-3-yl)piperidin-4-yl)-5-(4-chlorobenzyl)-2-methylpiperazin-1-yl)acetic acid], the IC50 on recombinant human AMCase is < 100 nM.

On to `CO[C@H]1C[C@H](Cc2ccc(Cl)cc2)N(C2CCN(c3nnc(N)[nH]3)CC2)C1` [Example 46, 5-(4-((2S,4S)-2-(4-chlorobenzyl)-4-methoxypyrrolidin-1-yl)piperidin-1-yl)-4H-1,2,4-triazol-3-amine], for which the IC50 at recombinant human CHIT1 is < 100 nM.

With `CC1(O)C[C@H](Cc2ccc(Cl)cc2)N(C2CCN(c3nnc(N)[nH]3)CC2)C1` (stereo partly drawn) [Example 48, (5S)-1-(1-(5-amino-4H-1,2,4-triazol-3-yl)piperidin-4-yl)-5-(4-chlorobenzyl)-3-methylpyrrolidin-3-ol], the IC50 on recombinant human CHIT1 is 100 to 1000 nM; at recombinant human AMCase, < 100 nM.

Regarding `Nc1nnc(N2CCC(N3C[C@@H]4CCCN4C[C@@H]3Cc3ccc(Cl)cc3)CC2)[nH]1` [Example 49, 5-(4-((3S,8aS)-3-(4-chlorobenzyl)hexahydropyrrolo[1,2-a]pyrazin-2(1H)-yl)piperidin-1-yl)-4H-1,2,4-triazol-3-amine], at recombinant human AMCase, the IC50 is < 100 nM.

With `CO[C@@H]1C[C@H](Cc2ccc(Cl)cc2)N(C2CCN(c3n[nH]c(N)n3)CC2)C1` [Example 51, 3-(4-((2S,4R)-2-(4-chlorobenzyl)-4-methoxypyrrolidin-1-yl)piperidin-1-yl)-1H-1,2,4-triazol-5-amine], the IC50 at recombinant human CHIT1 was < 100 nM.

The values are drawn from US9944624B2, “Substituted amino triazoles useful as human chitinase inhibitors” (OncoArendi Therapeutics S.A., priority 2015, dated 2018).
